The test can be described thus: Antagonist activity at CCR2 in human THP1 cells assessed as inhibition of MCP1-induced chemotaxis after 3 hrs.
In the case of `O=C(CNC(=O)c1cccc(C(F)(F)F)c1)NC1CN([C@H]2CC[C@](O)(c3ccc4c(c3)OCC4)CC2)C1`, the IC50 – broadly, the concentration at which inhibition is half-maximal – came to 0.052 µM.

Turning to `COc1ccc([C@H]2CC[C@H](N3CC(NC(=O)CNC(=O)c4cccc(C(F)(F)F)c4)C3)CC2)cc1`, the IC50 came out at 0.025 µM.

For the molecule `N[C@]1(c2ccccc2)CC[C@H](N2CC(NC(=O)CNC(=O)c3cccc(C(F)(F)F)c3)C2)CC1`, the IC50 was 0.16 µM.

Turning to `COc1ccc([C@]2(O)CC[C@@H](N3CC(NC(=O)CNC(=O)c4cccc(C(F)(F)F)c4)C3)CC2)cc1`, the IC50 was found to be 0.067 µM.

Regarding `O=C(CNC(=O)c1cccc(C(F)(F)F)c1)NC1CN([C@H]2CC[C@H](c3ccncc3O)CC2)C1`, the IC50 came out at 0.057 µM.

As for `O=C(CNC(=O)c1cccc(C(F)(F)F)c1)NC1CN([C@H]2CC[C@H](c3ccc4nc[nH]c4c3)CC2)C1`, the IC50 is 0.021 µM.

For `O=C(CNC(=O)c1cccc(C(F)(F)F)c1)NC1CN([C@H]2CC[C@H](c3ccc(O)cc3)CC2)C1`, the IC50 came out at 0.042 µM.

Turning to `O=C(CNC(=O)c1cccc(C(F)(F)F)c1)NC1CN([C@H]2CC[C@@H](c3ccc4c(c3)OCO4)CC2)C1`, the IC50 came to 0.015 µM.

Regarding `COc1cc([C@H]2CC[C@H](N3CC(NC(=O)CNC(=O)c4cccc(C(F)(F)F)c4)C3)CC2)ccn1`, the IC50 turned out to be 0.17 µM.

As to `O=C(CNC(=O)c1cccc(C(F)(F)F)c1)NC1CN([C@H]2CC[C@](O)(c3ccc4c(c3)OCO4)CC2)C1`, the IC50 came to 0.027 µM.

As for `COc1cnccc1[C@H]1CC[C@H](N2CC(NC(=O)CNC(=O)c3cccc(C(F)(F)F)c3)C2)CC1`, the IC50 came out at 0.028 µM.

Take `O=C(CNC(=O)c1cccc(C(F)(F)F)c1)NC1CN([C@H]2CC[C@H](c3ccc(C(=O)O)cc3)CC2)C1`: the IC50 amounted to 1.3 µM.

Regarding `O=C(CNC(=O)c1cccc(C(F)(F)F)c1)NC1CN([C@H]2CC[C@H](c3cccnc3)CC2)C1`, the IC50 came to 0.052 µM.

`O=C(CNC(=O)c1cccc(C(F)(F)F)c1)NC1CN([C@H]2CC[C@H](c3ccc(O)cn3)CC2)C1`: the 50% inhibitory concentration (IC50) amounted to 0.014 µM.

With `O=C(CNC(=O)c1cccc(C(F)(F)F)c1)NC1CN([C@H]2CC[C@H](c3ccc(N4CCCC4)cc3)CC2)C1`, the concentration for half-maximal inhibition (IC50) was found to be 0.24 µM.

Regarding `COc1ccc([C@H]2CC[C@H](N3CC(NC(=O)CNC(=O)c4cccc(C(F)(F)F)c4)C3)CC2)cn1`, the IC50 came out at 0.011 µM.
